Read-outs that look alike come from different tables or passages of the source.
Experiments:
Format in all cases: cell-based
[1] = test system: RSV strain A2; assay: RSV HEp-2 EC50 (infectious cytopathic cell protection assay); conditions: HEp-2 cells, RSV A2, 4 days, read-out: RSV HEp-2 EC50
How it was run: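 HEp-2 cells mixed with titered RSV A2 at 50,000 cells/ml were added to plates holding 3-fold serial compound dilutions in DMSO, then incubated 4 days at 37° C. Cytoprotection was read as cell viability by CellTiter-Glo luminescence and converted to percent inhibition against 0% and 100% inhibition controls.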

[2] = test system: RSV A2; assay: RSV NHBE EC50 (RSV A2 antiviral assay in normal human bronchial epithelial cells); conditions: NHBE cells, RSV A2, 4 days, read-out: RSV NHBE EC50
[3] = test system: HRV16; assay: HRV16 HELA EC50 (cytopathic effect in H1-HeLa cells)
How it was run: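 H1-HeLa cells seeded one day before, given 3-fold serial compound dilutions in triplicate just prior to infection with pre-titrated virus. Incubated 96 h at 33 °C/5% CO2; protection from cytopathic effect read as viability by CellTiter-Glo luminescence, normalised to infected untreated (0%) and uninfected (100%) controls.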

[4] = test system: DENV2 replicon; assay: DENV-2 Huh-7 Rep EC50 (replicon luminescence); conditions: read-out: DENV-2 Huh-7 Rep EC50
How it was run: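 Huh-7 cells carrying a DENV2 replicon, 5,000 cells/well, were incubated with dosed compounds for 48 h at 37° C. EnduRen live-cell substrate was added 1.5 h before luminescence reading. EC50 came from dose-response against DMSO-only wells.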

[5] = human respiratory syncytial virus, HEp-2, 96 h
[6] = human respiratory syncytial virus, NHBE, 96 h
[7] = 96 h, H1-HeLa cells, 33° C., read-out: HRV16 HELA EC50
[8] = Dengue virus, DENV2, Huh-7, 48 h, Huh-7 replicon cells, 48 hours
[9] = human respiratory syncytial virus, 96 h
[10] = H1-HeLa cells, 96 h, 33° C.; read-out: HRV16 HELA EC50
[11] = Dengue virus, DENV2, Huh-7, 48 h

SMILES | EC50 [1, 5] [µM] | EC50 [2, 6] [µM] | EC50 [3, 7] [µM] | EC50 [4, 8] [µM] | EC50 [1, 9] [µM] | EC50 [2, 9] [µM] | EC50 [3, 10] [µM] | EC50 [4, 11] [µM] | also measured
C[C@H](NP(=O)(OC[C@@]1(C#N)O[C@@H](c2ccc3c(N)ncnn23)[C@H](O)[C@@H]1O)Oc1ccccc1)C(=O)O[C@H]1CCN(C)C1 (stereo partly drawn) [Example 15, (S)-1-methylpyrrolidin-3-yl ((((2R,3S,4R,5S)-5-(4-aminopyrrolo[2,1-f][1,2,4]triazin-7-yl)-2-cyano-3,4-dihydroxytetrahydrofuran-2-yl)methoxy)(phenoxy)phosphoryl)-L-alaninate] | 4.33 | 3.25 | 11.4 | > 50 |  |  |  |  | 
C[C@H](NP(=O)(OC[C@@]1(C#N)O[C@@H](c2ccc3c(N)ncnn23)[C@H](O)[C@@H]1O)Oc1ccccc1)C(=O)O[C@H]1CC[C@H](C(F)(F)F)CC1 (stereo partly drawn) [Example 16, trans-4-(trifluoromethyl)cyclohexyl ((((2R,3S,4R,5S)-5-(4-aminopyrrolo[2,1-f][1,2,4]triazin-7-yl)-2-cyano-3,4-dihydroxytetrahydrofuran-2-yl)methoxy)(phenoxy)phosphoryl)-L-alaninate] | 1.29 | 0.104 | 1.31 | 70.8 |  |  |  |  | 
C[C@H](NP(=O)(OC[C@@]1(C#N)O[C@@H](c2ccc3c(N)ncnn23)[C@H](O)[C@@H]1O)Oc1ccccc1)C(=O)OCC1CCOCC1 (stereo partly drawn) [Example 20, (tetrahydro-2H-pyran-4-yl)methyl ((((2R,3S,4R,5S)-5-(4-aminopyrrolo[2,1-f][1,2,4]triazin-7-yl)-2-cyano-3,4-dihydroxytetrahydrofuran-2-yl)methoxy)(phenoxy)phosphoryl)-L-alaninate] | 0.877 | 2.23 | 4.88 | > 50 |  |  |  |  | 
C[C@H](NP(=O)(OC[C@@]1(C#N)O[C@@H](c2ccc3c(N)ncnn23)[C@H](O)[C@@H]1O)Oc1ccccc1)C(=O)O[C@H]1CC[C@H](C(C)(C)C)CC1 (stereo partly drawn) [Example 21, trans-4-(tert-butyl)cyclohexyl ((((2R,3S,4R,5S)-5-(4-aminopyrrolo[2,1-f][1,2,4]triazin-7-yl)-2-cyano-3,4-dihydroxytetrahydrofuran-2-yl)methoxy)(phenoxy)phosphoryl)-L-alaninate] | 0.079 | 0.027 | 0.23 | 11 |  |  |  |  | 
C[C@H](NP(=O)(OC[C@@]1(C#N)O[C@@H](c2ccc3c(N)ncnn23)[C@H](O)[C@@H]1O)Oc1ccccc1)C(=O)OCC1CCN(CC(F)(F)F)CC1 (stereo partly drawn) [Example 31, (1-(2,2,2-trifluoroethyl)piperidin-4-yl)methyl ((((2R,3S,4R,5S)-5-(4-aminopyrrolo[2,1-f][1,2,4]triazin-7-yl)-2-cyano3,4-dihydroxytetrahydrofuran-2-yl)methoxy)(phenoxy)phosphoryl)alaninate] | 0.334 | 0.258 | 2.5 | 96 |  |  |  |  | 
CCN1CCC(OC(=O)[C@H](C)NP(=O)(OC[C@@]2(C#N)O[C@@H](c3ccc4c(N)ncnn34)[C@H](O)[C@@H]2O)Oc2ccccc2)C(F)(F)C1 (stereo partly drawn) [Example 32, 1-ethyl-3,3-difluoropiperidin-4-yl ((((2R,3S,4R,5S)-5-(4-aminopyrrolo[2,1-f][1,2,4]triazin-7-yl)-2-cyano-3,4-dihydroxytetrahydrofuran-2-yl)methoxy)(phenoxy)phosphoryl)-L-alaninate] | 3.44 | > 3.12 | 9.95 | > 100 |  |  |  |  | 
C[C@H](NP(=O)(OC[C@@]1(C#N)O[C@@H](c2ccc3c(N)ncnn23)[C@H](O)[C@@H]1O)Oc1ccccc1)C(=O)O[C@H]1CC[C@H](N)CC1 (stereo partly drawn) [Example 33, (1r,4S)-4-aminocyclohexyl ((((2R,3S,4R,5S)-5-(4-aminopyrrolo[2,1-f][1,2,4]triazin-7-yl)-2-cyano-3,4-dihydroxytetrahydrofuran-2-yl)methoxy)(phenoxy)phosphoryl)-L-alaninate] | 1.91 | 2.68 | 27 | > 50 |  |  |  |  | 
CC(C)OC(=O)[C@H](C)NP(=O)(N[C@@H](C)C(=O)OC(C)C)OC[C@@]1(C#N)O[C@@H](c2ccc3c(N)ncnn23)[C@H](O)[C@@H]1O [Example 34] |  |  |  |  | 14 | 2.84 | > 50 | > 50 | 
CCOC(=O)[C@H](C)NP(=O)(N[C@@H](C)C(=O)OCC)OC[C@@]1(C#N)O[C@@H](c2ccc3c(N)ncnn23)[C@H](O)[C@@H]1O [Example 35, ((2R,3S,4R,5S)-5-(4-aminopyrrolo[2,1-f][1,2,4]triazin-7-yl)-2-cyano-3,4-dihydroxytetrahydrofuran-2-yl)methyl bis-ethyl L-alaninate phosphate] |  |  |  |  | 4.07 | 1.31 | 29.6 | > 50 | 
C[C@H](NP(=O)(N[C@@H](C)C(=O)OCC1CCC1)OC[C@@]1(C#N)O[C@@H](c2ccc3c(N)ncnn23)[C@H](O)[C@@H]1O)C(=O)OCC1CCC1 [Example 36, (2R,3S,4R,5S)-5-(4-aminopyrrolo[2,1-f][1,2,4]triazin-7-yl)-2-cyano-3,4-dihydroxytetrahydrofuran-2-yl)methyl bis-cyclobutylmethyl L-alaninate phosphate] |  |  |  |  | 1.44 | 0.312 | 10.7 | > 50 | 
COC(=O)[C@H](C)NP(=O)(N[C@@H](C)C(=O)OC)OC[C@@]1(C#N)O[C@@H](c2ccc3c(N)ncnn23)[C@H](O)[C@@H]1O [Example 38] |  |  |  |  | 3.51 | 3.98 | 20.9 | > 50 | 
COC(=O)[C@H](C)NP(=O)(OC[C@@]1(C#N)O[C@@H](c2ccc3c(N)ncnn23)[C@H](O)[C@@H]1O)Oc1ccccc1 (stereo partly drawn) [Example 39, methyl ((((2R,3S,4R,5S)-5-(4-aminopyrrolo[2,1-f][1,2,4]triazin-7-yl)-2-cyano-3,4-dihydroxytetrahydrofuran-2-yl)methoxy)(phenoxy)phosphoryl)-L-alaninate] | 0.166 | 0.569 | 1.08 | > 50 |  |  |  |  | 
COCCOP(=O)(N[C@@H](C)C(=O)OC(C)C)OC[C@@]1(C#N)O[C@@H](c2ccc3c(N)ncnn23)[C@H](O)[C@@H]1O (stereo partly drawn) [Example 41, isopropyl ((((2R,3S,4R,5S)-5-(4-aminopyrrolo[2,1-f][1,2,4]triazin-7-yl)-2-cyano-3,4-dihydroxytetrahydrofuran-2-yl)methoxy)(2-methoxyethoxy)phosphoryl)-L-alaninate] |  |  |  |  | > 50 | ≥ 5 | > 50 | > 50 | 
CC(C)OC(=O)[C@H](C)NP(=O)(OCCS(C)(=O)=O)OC[C@@]1(C#N)O[C@@H](c2ccc3c(N)ncnn23)[C@H](O)[C@@H]1O (stereo partly drawn) [Example 42, isopropyl ((((2R,3S,4R,5S)-5-(4-aminopyrrolo[2,1-f][1,2,4]triazin-7-yl)-2-cyano-3,4-dihydroxytetrahydrofuran-2-yl)methoxy)(2-(methylsulfonyl)ethoxy)phosphoryl)-L-alaninate] |  |  |  |  | 25.4 | ≥ 5 | > 50 | 39.2 | 
CCCOC(=O)[C@H](C)N[P@](=O)(OC[C@@]1(C#N)O[C@@H](c2ccc3c(N)ncnn23)[C@H](O)[C@@H]1O)Oc1ccccc1 [Example 45, propyl ((S)-(((2R,3S,4R,5S)-5-(4-aminopyrrolo[2,1-f][1,2,4]triazin-7-yl)-2-cyano-3,4-dihydroxytetrahydrofuran-2-yl)methoxy)(phenoxy)phosphoryl)-L-alaninate] | 0.055 | 0.248 | 0.375 | 9.66 |  |  |  |  | 
C[C@H](NP(=O)(OC[C@@]1(C#N)O[C@@H](c2ccc3c(N)ncnn23)[C@H](O)[C@@H]1O)Oc1ccccc1)C(=O)OCC1COC1 (stereo partly drawn) [Example 49, oxetan-3-ylmethyl ((((2R,3S,4R,5S)-5-(4-aminopyrrolo[2,1-f][1,2,4]triazin-7-yl)-2-cyano-3,4-dihydroxytetrahydrofuran-2-yl)methoxy)(phenoxy)phosphoryl)-L-alaninate] | 1.08 | 2.43 | 8.72 | > 50 |  |  |  |  | 
C[C@H](NP(=O)(OC[C@@]1(C#N)O[C@@H](c2ccc3c(N)ncnn23)[C@H](O)[C@@H]1O)Oc1ccccc1)C(=O)OC1CCC1 (stereo partly drawn) [Example 51] |  |  |  |  |  |  | 0.357 |  | EC50 [1]: 0.09 µM; EC50 [2]: > 1.24 µM; EC50 ([4]; Huh-7 replicon cells, 48 hours): 9.21 µM
COCCOc1ccc(OP(=O)(N[C@@H](C)C(=O)OC(C)C)OC[C@@]2(C#N)O[C@@H](c3ccc4c(N)ncnn34)[C@H](O)[C@@H]2O)cc1 (stereo partly drawn) [Example 53] | 2.36 |  | 15.5 | > 50 |  |  |  |  | EC50 ([2]; human respiratory syncytial virus, NHBE, in Homo sapiens, 96 h): ≥ 5 µM

Source: patent US20230295201A1 (Gilead Sciences, Inc., priority 2020, published 2023)
